We go through 17 compounds from patent publication US20230312577A1, “DUAL KINASE-BROMODOMAIN INHIBITORS” (MONASH UNIVERSITY, priority 2020, published 2023).

The test has as its system OPM2 cells. Nature of the test: Cell proliferation assay (ViaLight, cellular ATP). In kind it is cell-based. To be noted: Homo sapiens, OPM-2, 120 h, 5 days, 5 μM to 1 nM. As for the experimental part:
OPM2 cells (1×10^3) were plated in a 96 well plate. Test compounds were added to cells at final concentrations ranging from 5 μM to 1 nM. They were incubated for 5 days before they were analysed using ViaLight luminescence-based proliferation assays which detect cellular ATP, as per the manufacturer's instructions. All samples were prepared in technical triplicates. Data analysis was performed in GraphPad Prism version 7.00 for Mac OS X, (GraphPad Software, San Diego California USA) in order to calculate the GI50.

With `CC(=O)N1c2ccc(-c3cnn(C4CCN(C(=O)c5sc6c(N7CCOCC7)nc(-c7cnc(N)nc7)nc6c5C)CC4)c3)cc2CC[C@@H]1C` [Cpd 053, (S)-1-(6-(1-(1-(2-(2-aminopyrimidin-5-yl)-7-methyl-4-morpholinothieno[3,2-d]pyrimidine-6-carbonyl)piperidin-4-yl)-1H-pyrazol-4-yl)-2-methyl-3,4-dihydroquinolin-1(2H)-yl)ethan-1-one], the GI50 was at most 100 nM.
For `CC(=O)N1c2ccc(-c3cccc(CC(=O)NCc4cn5cc(-c6cnc(N)nc6)nc(N6CCOCC6)c5n4)c3)cc2CC[C@@H]1C` [Cpd 019, (S)-2-(3-(1-Acetyl-2-methyl-1,2,3,4-tetrahydroquinolin-6-yl)phenyl)-N-((6-(2-aminopy-rimidin-5-yl)-8-morpholinoimidazo[1,2-a]pyrazin-2-yl)methyl)acetamide] the value was 100 to 500 nM; for `CC(=O)N1c2ccc(-c3ccc(CNC(=O)c4cc5c(N6CCOCC6)nc(-c6cnc(N)nc6)c(Cl)n5n4)cc3)cc2CC[C@@H]1C` [Cpd 068, (S)-N-(4-(1-Acetyl-2-methyl-1,2,3,4-tetrahydroquinolin-6-yl)benzyl)-6-(2-aminopyrimidin-5-yl)-7-chloro-4-morpholinopyrazolo[1,5-a]pyrazine-2-carboxamide], at most 100 nM; for `CC(=O)N1c2ccc(-c3ccc(C(=O)N4CCN(Cc5cn6cc(-c7cnc(N)nc7)nc(N7CCOCC7)c6n5)CC4)cc3)cc2CC[C@@H]1C` [Cpd 014, (S)-1-(6-(4-(4-((6-(2-Aminopyrimidin-5-yl)-8-morpholinoimidazo[1,2-a]pyrazin-2-yl)methyl)piperazine-1-carbonyl)phenyl)-2-methyl-3,4-dihydroquinolin-1(2H)-yl)ethan-1-one], 100 to 500 nM.
In turn, `CC(=O)N1c2ccc(-c3ccc([C@H](C)NC(=O)c4cn5cc(-c6cnc(N)nc6)nc(N6CCOCC6)c5n4)cc3)cc2CC[C@@H]1C` [Cpd 062, N-((S)-1-(4-((S)-1-Acetyl-2-methyl-1,2,3,4-tetrahydroquinolin-6-yl)phenyl)ethyl)-6-(2-aminopyrimidin-5-yl)-8-morpholinoimidazo[1,2-a]pyrazine-2-carboxamide] had a GI50 of at most 100 nM.
For `CC(=O)N1c2ccc(-c3cccc(CNC(=O)Cc4cn5cc(-c6cnc(N)nc6)nc(N6CCOCC6)c5n4)c3)cc2CC[C@@H]1C` [Cpd 025, (S)-N-(3-(1-acetyl-2-methyl-1,2,3,4-tetrahydroquinolin-6-yl)benzyl)-2-(6-(2-aminopyrimidin-5-yl)-8-morpholinoimidazo[1,2-a]pyrazin-2-yl)acetamide] the value was 100 to 500 nM; for `CC(=O)N1c2ccc(-c3ccc(NC(=O)Cc4cn5cc(-c6cnc(N)nc6)nc(N6CCOCC6)c5n4)cc3)cc2CC[C@@H]1C` [Cpd 022, (S)-N-(4-(1-acetyl-2-methyl-1,2,3,4-tetrahydroquinolin-6-yl)phenyl)-2-(6-(2-aminopyrimidin-5-yl)-8-morpholinoimidazo[1,2-a]pyrazin-2-yl)acetamide], at most 100 nM; for `CC(=O)N1c2ccc(-c3ccc(CN(C)Cc4sc5c(N6CCOCC6)nc(-c6cnc(N)nc6)nc5c4C)cc3)cc2CC[C@@H]1C` [Cpd 043, (S)-1-(6-(4-((((2-(2-aminopyrimidin-5-yl)-7-methyl-4-morpholinothieno[3,2-d]pyrimidin-6-yl)methyl)(methyl)amino)methyl)phenyl)-2-methyl-3,4-dihydroquinolin-1(2H)-yl)ethan-1-one], over 500 nM.
`CC(=O)N1c2ccc(-c3cccc(C(=O)NCc4cn5cc(-c6cnc(N)nc6)nc(N6CCOCC6)c5n4)c3)cc2CC[C@@H]1C` [Cpd 017, (S)-3-(1-Acetyl-2-methyl-1,2,3,4-tetrahydroquinolin-6-yl)-N-((6-(2-aminopyrimidin-5-yl)-8-morpholinoimidazo[1,2-a]pyrazin-2-yl)methyl)benzamide]: the GI50 is 100 to 500 nM.
Consider `CC(=O)N1c2ccc(-c3ccc(CNC(=O)c4cn5cc(-c6cnc(N)nc6)cc(N6CCOCC6)c5n4)cc3)cc2CC[C@@H]1C` [Cpd 074, (S)-N-(4-(1-Acetyl-2-methyl-1,2,3,4-tetrahydroquinolin-6-yl)benzyl)-6-(2-aminopyrimidin-5-yl)-8-morpholinoimidazo[1,2-a]pyridine-2-carboxamide], for which the GI50 is at most 100 nM.
The figure for `CC(=O)N1c2ccc(-c3ccc(CN4CCN(Cc5cn6cc(-c7cnc(N)nc7)nc(N7CCOCC7)c6n5)CC4)cc3)cc2CC[C@@H]1C` [Cpd 015, (S)-1-(6-(4-((4-((6-(2-Aminopyrimidin-5-yl)-8-morpholinoimidazo[1,2-a]pyrazin-2-yl)methyl)piperazin-1-yl)methyl)phenyl)-2-methyl-3,4-dihydroquinolin-1(2H)-yl)ethan-1-one] is 100 to 500 nM; for `CC(=O)N1c2ccc(-c3ccc(CN(C)Cc4cc5nc(-c6cnc(N)nc6)nc(N6CCOCC6)c5s4)cc3)cc2CC[C@@H]1C` [Cpd 042, (S)-1-(6-(4-((((2-(2-Aminopyrimidin-5-yl)-4-morpholinothieno[3,2-d]pyrimidin-6-yl)methyl)(methyl)amino)methyl)phenyl)-2-methyl-3,4-dihydroquinolin-1(2H)-yl)ethan-1-one] it is over 500 nM.
The figure for `CC(=O)N1c2ccc(-c3ccc(CNC(=O)c4cn5cc(-c6cnc(N)nc6)nc(N6CCCCC6)c5n4)cc3)cc2CC[C@@H]1C` [Cpd 064, (S)-N-(4-(1-Acetyl-2-methyl-1,2,3,4-tetrahydroquinolin-6-yl)benzyl)-6-(2-aminopyrimidin-5-yl)-8-(piperidin-1-yl)imidazo[1,2-a]pyrazine-2-carboxamide] is 100 to 500 nM.
For `CC(=O)N1c2ccc(-c3ccc(CCNC(=O)c4cc5nc(-c6cnc(N)nc6)nc(N6CCOCC6)c5s4)cc3)cc2CC[C@@H]1C` [Cpd 045, (S)-N-(4-(1-acetyl-2-methyl-1,2,3,4-tetrahydroquinolin-6-yl)phenethyl)-2-(2-aminopyrimidin-5-yl)-4-morpholinothieno[3,2-d]pyrimidine-6-carboxamide] the value was at most 100 nM; for `CC(=O)N1c2ccc(-c3ccc(CN(C)C(=O)c4sc5c(N6CCOCC6)nc(-c6cnc(N)nc6)nc5c4C)cc3)cc2CC[C@@H]1C` [Cpd 039, (S)-N-(4-(1-acetyl-2-methyl-1,2,3,4-tetrahydroquinolin-6-yl)benzyl)-2-(2-aminopyrimidin-5-yl)-N,7-dimethyl-4-morpholinothieno[3,2-d]pyrimidine-6-carboxamide], over 500 nM; for `CC(=O)N1c2ccc(-c3ccc(C(=O)NCCCNC(=O)c4sc5c(N6CCOCC6)nc(-c6cnc(N)nc6)nc5c4C)cc3)cc2CC[C@@H]1C` [Cpd 041, (S)-N-(3-(4-(1-Acetyl-2-methyl-1,2,3,4-tetrahydroquinolin-6-yl)benzamido)propyl)-2-(2-aminopyrimidin-5-yl)-7-methyl-4-morpholinothieno[3,2-d]pyrimidine-6-carboxamide], over 500 nM.
`CC(=O)N1c2ccc(-c3ccc(C(=O)NCCNC(=O)c4cn5cc(-c6cnc(N)nc6)nc(N6CCOCC6)c5n4)cc3)cc2CC[C@@H]1C` [Cpd 012, (S)-N-(2-(4-(1-Acetyl-2-methyl-1,2,3,4-tetrahydroquinolin-6-yl)benzamido)ethyl)-6-(2-aminopyrimidin-5-yl)-8-morpholinoimidazo[1,2-a]pyrazine-2-carboxamide] gave a GI50 of at most 100 nM.
